Data reported in patent publication EP3875590A1, “METHOD FOR PRODUCING ORGANIC COMPOUND AND CORYNEFORM BACTERIUM” (Green Earth Institute Co., Ltd., priority 2018, dated 2020).

What was measured:
leucine dehydrogenase [1] = assay: enzyme kinetics (Michaelis-Menten) of the reductive amination reaction of HOB with purified leucine dehydrogenase; format: biochemical, Lysinibacillus sphaericus; conditions: 100 mM HEPES/KOH (pH 7.5), 200 mM ammonium chloride, 0.2 mM NADH, 3.7 µg/mL leucine dehydrogenase
Experimental: The solution in which the bacterial cells were crushed and which was obtained in 4-6-(1) was subjected to a filtration treatment using a syringe filter with a pore size of 0.2 µm (manufactured by Sartorius AG). Fractionation was performed using an AKTA purifier system (manufactured by GE Healthcare) to which a HisTrap™ FF 1 mL column was connected, and using 50 mM sodium phosphate buffer (pH 8.0), 500 mM sodium chloride, and 10% glycerol as adsorption buffers, and 50 mM sodium phosphate buffer (pH 8.0), 500 mM sodium chloride, 10% glycerol, and 500 mM imidazole as elution buffers. Fractions containing leucine dehydrogenase identified by SDS-PAGE were recovered and concentrated using ultrafiltration. […]
Using the purified leucine dehydrogenase thus obtained, analysis of enzyme kinetics based on the Michaelis-Menten formula using HOB as a substrate was performed. As reaction conditions, 100 mM HEPES/KOH (pH 7.5), 200 mM ammonium chloride, 0.2 mM NADH, and 3.7 µg/mL leucine dehydrogenase were used, and a reaction rate at which a concentration of HOB was 3.13, 6.25, 12.5, 25.0, 50.0, and 100 mM was measured. A reaction rate was calculated by measuring a continuous decrease in absorption by NADH at 340 nm using a Varioskan LUX (manufactured by Thermo Fisher Scientific Inc.). […]

valine dehydrogenase = target: T1, valine dehydrogenase (Streptomyces fradiae, UniProt P40176); assay: oxidative deamination reaction activity against L-homoserine, crushed-cell solution expressing valine dehydrogenase; format: biochemical; conditions: crushed cells of GES1057 (E. coli BL21 (DE3), pGE1175); same conditions as 4-6-(1): pH 10.0, 2.5 mM NAD^+, 50 mM L-homoserine
T1 construct: His-tag (pET-15b vector-encoded, with thrombin site); made in house; host or cells: E. coli BL21 (DE3), strain GES1057, plasmid pGE1175 (pET-15b)
T1 sequence (P40176 whole entry): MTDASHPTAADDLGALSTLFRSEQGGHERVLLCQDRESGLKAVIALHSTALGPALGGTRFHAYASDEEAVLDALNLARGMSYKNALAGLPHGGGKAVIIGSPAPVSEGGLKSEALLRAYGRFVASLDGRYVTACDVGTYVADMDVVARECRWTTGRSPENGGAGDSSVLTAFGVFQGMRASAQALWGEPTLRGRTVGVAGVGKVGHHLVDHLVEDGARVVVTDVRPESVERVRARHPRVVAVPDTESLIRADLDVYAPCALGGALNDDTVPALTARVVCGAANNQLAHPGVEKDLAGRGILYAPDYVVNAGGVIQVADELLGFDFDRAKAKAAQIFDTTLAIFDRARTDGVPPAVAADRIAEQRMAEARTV
Experimental: (§1) Using this solution in which the bacterial cells were crushed, an oxidative deamination reaction activity against L-homoserine was measured. As the reaction conditions, an appropriately diluted solution in which the bacterial cells were crushed was mixed with 100 mM glycine-KCl-KOH (pH 10.0), 2.5 mM NAD^+, and 50 mM L-homoserine, and a continuous increase in absorption by NADH at 340 nm was measured using a Varioskan LUX (manufactured by Thermo Fisher Scientific Inc.). As a result, a specific activity of this solution in which the bacterial cells were crushed against L-homoserine was 0.21 U/mg of protein.
(§2) Transformation was performed using pGE1175 and using ECOSTM Competent E. coli BL21 (DE3) (manufactured by NIPPON GENE CO., LTD.) according to its instructions, and the obtained strain was designated as GES 1057. When a protein concentration in a solution, in which the cells were crushed and which was obtained by subjecting GES1057 to the same operation as that of GES 1007, was measured, it was 4.2 mg/mL.
(§3) As a result of measuring an oxidative deamination reaction activity against L-homoserine in the same manner as in 4-6-(1) using this solution in which the bacterial cells were crushed, a specific activity of this solution in which the bacterial cells were crushed against L-homoserine was 0.21 U/mg of protein.

leucine dehydrogenase [2] = assay: oxidative deamination reaction activity against L-homoserine, crushed-cell solution expressing leucine dehydrogenase; format: biochemical, Lysinibacillus sphaericus; conditions: crushed cells of GES1007 (E. coli BL21 (DE3), pGE1148); 100 mM glycine-KCl-KOH (pH 10.0), 2.5 mM NAD^+, 50 mM L-homoserine; NADH absorption at 340 nm
Experimental: Transformation was performed using pGE1148 and using ECOSTM Competent E. coli BL21 (DE3) (manufactured by NIPPON GENE CO., LTD.) according to its instructions, and the obtained strain was designated as GES1007. GES1007 was inoculated into an LB agar medium containing 100 µg/mL of ampicillin under aseptic conditions, and culture was performed at 37°C. Bacterial cells grown on the agar medium were inoculated into 10 mL of an LB medium containing 100 µg/mL of ampicillin, and shaking culture was performed at 37°C to prepare a seed culture solution. This seed culture solution was inoculated into 100 mL of an LB medium containing 100 µg/mL of ampicillin and prepared in a 500 mL flask so that a turbidity was 0.1. Shaking was performed at 37°C, and culture was performed until a turbidity was 0.7. […] When a protein concentration in this solution in which the cells were crushed was measured, it was 12 mg/mL.
as §1, with “As a result, a specific activity of this solution in which the bacterial cells were crushed against L-homoserine was 0.21 U/mg of protein.” left out

[3] = target: T2, phenylalanine dehydrogenase (Pseudobacillus badius, UniProt Q59224); assay: oxidative deamination reaction activity against L-homoserine, crushed-cell solution expressing phenylalanine dehydrogenase; format: biochemical, Bacillus badius; conditions: crushed cells of GES1136 (E. coli BL21 (DE3), pGE1237); same conditions as 4-6-(1): pH 10.0, 2.5 mM NAD^+, 50 mM L-homoserine
T2 construct: His-tag (pET-15b vector-encoded, with thrombin site); made in house; host or cells: E. coli BL21 (DE3), strain GES1136, plasmid pGE1237 (pET-15b)
T2 sequence (Q59224 whole entry): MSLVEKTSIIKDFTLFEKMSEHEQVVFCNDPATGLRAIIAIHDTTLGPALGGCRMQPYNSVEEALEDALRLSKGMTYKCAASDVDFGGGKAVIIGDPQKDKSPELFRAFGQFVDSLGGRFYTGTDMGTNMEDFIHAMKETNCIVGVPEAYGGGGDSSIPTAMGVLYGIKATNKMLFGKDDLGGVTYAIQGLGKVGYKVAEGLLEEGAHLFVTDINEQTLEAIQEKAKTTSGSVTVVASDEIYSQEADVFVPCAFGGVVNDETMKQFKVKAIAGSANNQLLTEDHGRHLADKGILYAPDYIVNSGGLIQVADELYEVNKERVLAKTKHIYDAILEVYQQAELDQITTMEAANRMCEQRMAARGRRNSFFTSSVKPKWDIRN
Experimental: as §1
as §2, with “pGE1237” for “pGE1175”, “1136.” for “1057.”, “subj ecting GES1136” for “subjecting GES1057”, “11” for “4.2”
as §3, with “0.045” for “0.21”

SMILES	Km (leucine dehydrogenase [1]; HOB 3.13-100 mM, read-out: Michaelis constant KM for HOB)	catalyst rotation speed kcat (leucine dehydrogenase [1]; HOB as a substrate)	specific activity of this solution in which the bacterial cells were crushed against L-homoserine (valine dehydrogenase)	specific activity of this solution in which the bacterial cells were crushed against L-homoserine (leucine dehydrogenase [2])	specific activity of this solution in which the bacterial cells were crushed against L-homoserine [3]
O=C(O)C(=O)CCO [HOB, 4-hydroxy-2-oxobutyric acid]	7.7 mM	2.7 s⁻¹			
N[C@@H](CCO)C(=O)O [L-homoserine]			0.21 U/mg of protein	0.21 U/mg of protein	0.045 U/mg of protein
